Measurements as given in US12679848B2, “Plasma kallikrein inhibitors” (Merck Sharp & Dohme LLC, priority 2020, dated 2026).

Key:
human factor XIa = human factor XIa (Homo sapiens, UniProt P03951); assay: Factor XIa Assay; format: biochemical; settings: human factor XIa 0.04 nM, substrate GPR-AFC, 30 min pre-incubation, 25° C., pH 7.4; read-out: FXIa IC50
Human plasma kallikrein = biological target: T1, Human plasma kallikrein (Homo sapiens, UniProt P03952); assay: Plasma Kallikrein Assay; format: biochemical; settings: purified Human plasma kallikrein 0.5 nM, substrate Acetyl-K-P-R-AFC, HEPES pH 7.4; read-out: PKal IC50
T1 construct: yields a heavy chain (371 amino acids) and a light chain (248 amino acids); The active site of plasma kallikrein is contained in the light chain; purchased Enzyme Research Laboratories
Outline: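 Purified human plasma kallikrein at 0.5 nM final with substrate Acetyl-K-P-R-AFC at […], in 50 mM HEPES pH 7.4, 150 mM NaCl, 5 mM CaCl2, 0.1% PEG 8000, at rt or 37° C after enzyme-inhibitor equilibration. IC50 from four-parameter logistic fit of fluorescence rate; Ki via Cheng-Prusoff.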

Sequence of human factor XIa (P03951 388-625 limits assumed): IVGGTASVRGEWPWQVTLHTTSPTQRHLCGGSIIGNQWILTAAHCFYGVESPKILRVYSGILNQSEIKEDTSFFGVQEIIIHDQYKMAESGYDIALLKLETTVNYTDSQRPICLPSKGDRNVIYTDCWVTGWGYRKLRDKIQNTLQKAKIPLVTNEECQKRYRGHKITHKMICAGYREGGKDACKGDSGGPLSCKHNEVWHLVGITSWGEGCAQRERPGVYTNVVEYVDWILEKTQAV
Sequence of human factor XIa (P03951 19-387 partner limits assumed): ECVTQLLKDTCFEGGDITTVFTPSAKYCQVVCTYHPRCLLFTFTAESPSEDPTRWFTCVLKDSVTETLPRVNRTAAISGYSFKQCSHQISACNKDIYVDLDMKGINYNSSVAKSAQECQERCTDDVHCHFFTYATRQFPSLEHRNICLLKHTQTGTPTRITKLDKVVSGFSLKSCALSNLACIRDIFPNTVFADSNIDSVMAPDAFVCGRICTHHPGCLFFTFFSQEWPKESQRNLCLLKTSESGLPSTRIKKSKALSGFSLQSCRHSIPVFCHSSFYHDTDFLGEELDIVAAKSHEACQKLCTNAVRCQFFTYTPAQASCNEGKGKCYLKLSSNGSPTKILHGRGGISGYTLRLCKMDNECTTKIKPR
T1 sequence (P03952 391-638 limits assumed): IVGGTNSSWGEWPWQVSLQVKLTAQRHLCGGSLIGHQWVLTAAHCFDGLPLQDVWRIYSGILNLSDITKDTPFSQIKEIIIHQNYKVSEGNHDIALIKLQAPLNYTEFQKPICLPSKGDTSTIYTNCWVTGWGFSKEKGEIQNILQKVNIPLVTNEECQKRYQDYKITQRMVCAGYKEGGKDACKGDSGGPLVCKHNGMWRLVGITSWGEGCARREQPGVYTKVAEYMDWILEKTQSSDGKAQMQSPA
T1 sequence (P03952 20-390 partner limits assumed): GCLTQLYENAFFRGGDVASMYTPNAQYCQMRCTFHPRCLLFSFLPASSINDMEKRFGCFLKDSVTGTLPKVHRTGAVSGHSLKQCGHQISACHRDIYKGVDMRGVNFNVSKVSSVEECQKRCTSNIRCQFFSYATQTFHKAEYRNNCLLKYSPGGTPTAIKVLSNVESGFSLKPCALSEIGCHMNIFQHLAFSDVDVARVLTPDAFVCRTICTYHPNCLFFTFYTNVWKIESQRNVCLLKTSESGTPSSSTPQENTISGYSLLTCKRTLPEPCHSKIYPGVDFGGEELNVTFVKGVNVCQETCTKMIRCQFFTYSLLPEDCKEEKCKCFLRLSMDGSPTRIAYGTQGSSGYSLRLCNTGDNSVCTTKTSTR

SMILES	IC50 (human factor XIa) [nM]	IC50 (Human plasma kallikrein) [nM]
Nc1c(C(=O)N2CCC[C@@]3(C2)OC(=O)Nc2ccc(Cl)c(F)c23)cnn1-c1cccc2c1OC(F)(F)O2 [Example 91, (R)-1'-(5-Amino-1-(2,2-difluorobenzo[d][1,3]dioxol-4-y1)-1H-pyrazole-4-carbonyl)-6-chloro-5-fluorospiro[benzo[d][1,3]oxazine-4,3'-piperidin]-2(1H)-one]	525	5.8
Nc1c(C(=O)N2CCC[C@@]3(C2)OC(=O)Nc2ccc(Cl)c(F)c23)cnn1-c1ccncc1Cl [Example 73, (R)-1'-(5-Amino-1-(3-chloropyridin-4-y1)-1H-pyrazole-4-carbonyl)-6-chloro-5-fluorospiro[benzo[d][1,3]oxazine-4,3'-piperidin]-2(1H)-one]	316	22.5
Cc1cccc(Cn2ncc(C(=O)N3CCC[C@@]4(C3)OC(=O)Nc3ccc(Cl)c(F)c34)c2N)c1 [Example 45, (R)-1'-(5-Amino-1-(3-methylbenzyl)-1H-pyrazole-4-carbonyl)-6-chloro-5-fluorospiro[benzo[d][1,3]oxazine-4,3'-piperidin]-2(1H)-one]	156	0.7
COc1ccccc1-n1ncc(C(=O)N2CCC[C@@]3(C2)OC(=O)Nc2ccc(Cl)c(F)c23)c1N [Example 79, (R)-1'-(5-Amino-1-(2-methoxyphenyl)-1H-pyrazole-4-carbonyl)-6-chloro-5-fluorospiro[benzo[d][1,3]oxazine-4,3'-piperidin]-2(1H)-one]	377	5.8
COc1ccc(Cl)cc1-n1ncc(C(=O)N2CCC[C@@]3(C2)OC(=O)Nc2ccc(Cl)c(F)c23)c1N [Example 94, (R)-1'-(5-Amino-1-(5-chloro-2-methoxyphenyl)-1H-pyrazole-4-carbonyl)-6-chloro-5-fluorospiro[benzo[d][1,3]oxazine-4,3'-piperidin]-2(1H)-one]	1290	11.8
CCC(c1ccccc1)n1ncc(C(=O)N2CCC[C@@]3(C2)OC(=O)Nc2ccc(Cl)c(F)c23)c1N (single isomer, unassigned) [Example 116, (R)-1'-(5-Amino-1-((S or R)-1-phenylpropyl)-1H-pyrazole-4-carbonyl)-6-chloro-5-fluorospiro[benzo[d][1,3]oxazine-4,3'-piperidin]-2(1H)-one]	4	0.7
Nc1c(C(=O)N2CCC[C@@]3(C2)OC(=O)Nc2ccc(Cl)c(F)c23)cnn1CCc1ccccc1 [Example 16, (R)-1'-(5-Amino-1-phenethyl-1H-pyrazole-4-carbonyl)-6-chloro-5-fluorospiro[benzo[d][1,3]oxazine-4,3'-piperidin]-2(1H)-one]	441	4.1
CC1(C)CN(C(=O)c2cnn(Cc3ccccc3)c2N)C[C@]2(C1)OC(=O)Nc1ccc(Cl)c(F)c12 [Example 10, (R)-1'-(5-Amino-1-benzyl-1H-pyrazole-4-carbonyl)-6-chloro-5-fluoro-5',5'-dimethylspiro[benzo[d][1,3]oxazine-4,3'-piperidin]-2(1H)-one]	122	1.3
CC1(c2ccccc2-n2ncc(C(=O)N3CCC[C@@]4(C3)OC(=O)Nc3ccc(Cl)c(F)c34)c2N)CC1 [Example 98, (R)-1'-(5-Amino-1-(2-(1-methylcyclopropyl)phenyl)-1H-pyrazole-4-carbonyl)-6-chloro-5-fluorospiro[benzo[d][1,3]oxazine-4,3'-piperidin]-2(1H)-one]	219	8.4
Nc1c(C(=O)N2CCC[C@@]3(C2)OC(=O)Nc2ccc(Cl)c(F)c23)cnn1-c1ccccc1OCC(F)(F)F [Example 99, (R)-1'-(5-Amino-1-(2-(2,2,2-trifluoroethoxy)phenyl)-1H-pyrazole-4-carbonyl)-6-chloro-5-fluorospiro[benzo[d][1,3]oxazine-4,3'-piperidin]-2(1H)-one]	1080	13.3
Nc1c(C(=O)N2CCC[C@@]3(C2)OC(=O)Nc2ccc(Cl)c(F)c23)cnn1-c1ccc(C(=O)O)cc1 [Example 74, (R)-4-(5-Amino-4-(6-chloro-5-fluoro-2-oxo-1,2-dihydrospiro[benzo[d][1,3]oxazine-4,3'-piperidine]-l'-carbonyl)-1H-pyrazol-1-yl)benzoic acid]	378	8.4
Nc1c(C(=O)N2CCC[C@@]3(C2)OC(=O)Nc2ccc(Cl)c(F)c23)cnn1CCOc1ccc(Cl)cc1 [Example 37, (R)-1'-(5-Amino-1-(2-(4-chlorophenoxy)ethyl)-1H-pyrazole-4-carbonyl)-6-chloro-5-fluorospiro[benzo[d][1,3]oxazine-4,3'-piperidin]-2(1H)-one]	4600	10.5

The remaining lines, values ahead:

IC50 (human factor XIa) [nM]	IC50 (Human plasma kallikrein) [nM]	SMILES
1310	28.1	Cc1ccccc1-n1ncc(C(=O)N2CCC[C@@]3(C2)OC(=O)Nc2ccc(Cl)c(F)c23)c1N [Example 64, (R)-1'-(5-Amino-1-(o-toly1)-1H-pyrazole-4-carbonyl)-6-chloro-5-fluorospiro[benzo[d][1,3]oxazine-4,3'-piperidin]-2(1H)-one]
1060	29.5	Nc1c(C(=O)N2CCC[C@@]3(C2)OC(=O)Nc2ccc(Cl)c(F)c23)cnn1-c1cc(F)ccc1F [Example 76, (R)-1'-(5-Amino-1-(2,5-difluorophenyl)-1H-pyrazole-4-carbonyl)-6-chloro-5-fluorospiro[benzo[d][1,3]oxazine-4,3'-piperidin]-2(1H)-one]
1120	15.3	Nc1c(C(=O)N2CCC[C@@]3(C2)OC(=O)Nc2ccc(Cl)c(F)c23)cnn1C1CCCC1 [Example 22, (R)-1'-(5-Amino-1-cyclopenty1-1H-pyrazole-4-carbonyl)-6-chloro-5-fluorospiro[benzo[d][1,3]oxazine-4,3'-piperidin]-2(1H)-one]
699	18.8	Nc1c(C(=O)N2CCC[C@@]3(C2)OC(=O)Nc2ccc(Cl)c(F)c23)cnn1CCC(F)(F)F [Example 27, (R)-1'-(5-Amino-1-(3,3,3-trifluoropropyl)-1H-pyrazole-4-carbonyl)-6-chloro-5-fluorospiro[benzo[d][1,3]oxazine-4,3'-piperidin]-2(1H)-one]
813	35.9	Nc1c(C(=O)N2CCC[C@@]3(C2)OC(=O)Nc2ccc(Cl)c(F)c23)cnn1-c1cc(F)ccc1Cl [Example 78, (R)-1'-(5-Amino-1-(2-chloro-5-fluorophenyl)-1H-pyrazole-4-carbonyl)-6-chloro-5-fluorospiro[benzo[d][1,3]oxazine-4,3'-piperidin]-2(1H)-one]
167	1.2	Nc1c(C(=O)N2CCC[C@@]3(C2)OC(=O)Nc2ccc(Cl)c(F)c23)cnn1C1(c2ccc(F)cc2)CCC1 [Example 46, (R)-1'-(5-Amino-1-(1-(4-fluorophenyl)cyclobutyl)-1H-pyrazole-4-carbonyl)-6-chloro-5-fluorospiro[benzo[d][1,3]oxazine-4,3'-piperidin]-2(1H)-one]
2250	13.5	CC(C)(C)n1ncc(C(=O)N2CCC[C@@]3(C2)OC(=O)Nc2ccc(Cl)c(F)c23)c1N [Example 23, (R)-1'-(5-Amino-1-(tert-butyl)-1H-pyrazole-4-carbonyl)-6-chloro-5-fluorospiro[benzo[d][1,3]oxazine-4,3'-piperidin]-2(1H)-one]
1650	39.1	Nc1c(C(=O)N2CCC[C@@]3(C2)OC(=O)Nc2ccc(Cl)c(F)c23)cnn1C1CCOCC1 [Example 18, (R)-1'-(5-Amino-1-(tetrahydro-2H-pyran-4-y1)-1H-pyrazole-4-carbonyl)-6-chloro-5-fluorospiro[benzo[d][1,3]oxazine-4,3'-piperidin]-2(1H)-one]
855	22.9	Nc1c(C(=O)N2CCC[C@@]3(C2)OC(=O)Nc2ccc(Cl)c(F)c23)cnn1-c1ncccc1F [Example 62, (R)-1'-(5-Amino-1-(3-fluoropyridin-2-y1)-1H-pyrazole-4-carbonyl)-6-chloro-5-fluorospiro[benzo[d][1,3]oxazine-4,3'-piperidin]-2(1H)-one]
1100	12.6	CC(C)OCCn1ncc(C(=O)N2CCC[C@@]3(C2)OC(=O)Nc2ccc(Cl)c(F)c23)c1N [Example 21, (R)-1'-(5-Amino-1-(2-isopropoxyethyl)-1H-pyrazole-4-carbonyl)-6-chloro-5-fluorospiro[benzo[d][1,3]oxazine-4,3'-piperidin]-2(1H)-one]
591	4.9	CC(n1ncc(C(=O)N2CCC[C@@]3(C2)OC(=O)Nc2ccc(Cl)c(F)c23)c1N)C(F)(F)F (single isomer, unassigned) [Example 121, (R)-1'-(5-Amino-1-((S or R)-1,1,1-trifluoropropan-2-y1)-1H-pyrazole-4-carbonyl)-6-chloro-5-fluorospiro[benzo[d][1,3]oxazine-4,3'-piperidin]-2(1H)-one]
2940	28.9	Nc1c(C(=O)N2CCC[C@@]3(C2)OC(=O)Nc2ccc(Cl)c(F)c23)cnn1C12CC(C1)C2 [Example 19, (R)-1'-(5-Amino-1-(bicyclo[1.1.1]pentan-1-y1)-1H-pyrazole-4-carbonyl)-6-chloro-5-fluorospiro[benzo[d][1,3]oxazine-4,3'-piperidin]-2(1H)-one]
154	4.5	Nc1c(C(=O)N2CCC[C@@]3(C2)OC(=O)Nc2ccc(Cl)c(F)c23)cnn1C(C1CC1)C(F)(F)F (single isomer, unassigned) [Example 125, (R)-1'-(5-Amino-1-((S or R)-1-cyclopropyl-2,2,2-trifluoroethyl)-1H-pyrazole-4-carbonyl)-6-chloro-5-fluorospiro[benzo[d][1,3]oxazine-4,3'-piperidin]-2(1H)-one]
